The source of these data is patent publication US20230391778A1, “INDOLIN-2-ONE OR PYRROLO -PYRIDIN -2 -ONE DERIVATIVES” (Hoffmann-La Roche Inc., priority 2014, published 2023).

Experiment [1] concerns the target T1, mouse ENT-1 transporter (Mus musculus, UniProt Q9JIM1).
T1 construct: expressed in transfected cells
T1 sequence (Q9JIM1 1-460): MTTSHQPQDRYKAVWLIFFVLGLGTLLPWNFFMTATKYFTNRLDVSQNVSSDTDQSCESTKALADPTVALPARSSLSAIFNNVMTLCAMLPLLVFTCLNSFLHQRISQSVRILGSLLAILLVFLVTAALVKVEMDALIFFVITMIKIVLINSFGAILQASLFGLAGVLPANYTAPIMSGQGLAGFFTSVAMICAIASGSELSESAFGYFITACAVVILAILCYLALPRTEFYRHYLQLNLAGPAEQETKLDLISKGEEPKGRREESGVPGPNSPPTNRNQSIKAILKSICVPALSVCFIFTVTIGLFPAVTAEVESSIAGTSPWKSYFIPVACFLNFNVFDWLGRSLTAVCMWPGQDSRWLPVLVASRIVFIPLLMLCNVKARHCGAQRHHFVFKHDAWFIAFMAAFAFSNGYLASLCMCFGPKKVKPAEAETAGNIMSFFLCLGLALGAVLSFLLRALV
The experiment is described as follows: Measure of adenosine transport activity (ENT1 adenosine uptake inhibition). The class given is cell-based. To be noted: stable cells expressing mouse ENT-1, [2,8-3H]-adenosine 6 nM, 20 min. The gist of the method: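 Stable mouse ENT-1 cells, 60,000/well, washed into pH 7.4 Hepes-Tris uptake buffer and incubated at RT with compound (1% DMSO final) for 20 min with shaking. Non-specific uptake defined with 10 μM NBTI; cell-associated radioactivity counted by scintillation after ice-cold washes.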

Experiment [2] deals with L-687,414-induced hyperlocomotion. The experiment is described as follows: L-687,414-induced hyperlocomotion. It is filed as in vivo, mouse. To be noted: Dose ip 30 mg/kg, mice, 50 mg/kg s.c. L-687,414; for inhibition in vivo at 30 mg/kg: Mus musculus. On the procedure: The described compounds of formula I reduce L-687,414-induced hyperlocomotion. This was assessed by using a computerized Digiscan 16 Animal Activity Monitoring System (Omnitech Electronics, Columbus, Ohio) to quantify locomotor activity. Animals were kept under a 12 h light/dark cycle and experiments were performed during the light period. Each activity monitoring chamber consisted of a Plexiglas box (41×41×28 cm; W×L×H) with sawdust bedding on the floor surrounded by invisible horizontal and vertical infrared sensor beams. The test boxes were divided by a Plexiglas cross providing each mouse with 20×20 cm of moving space. Cages were connected to a Digiscan Analyzer linked to a computer that constantly collected the beam status information. Records of photocell beam interruptions for individual animals were taken every 5 min over the duration of the experimental session and the sum of the first 6 periods was used as the final parameter. At least 8 mice were used in each treatment group. Compounds were administered either p.o. 15 min before a s.c. injection of 50 mg/kg of L-687,414, or i.p. at the same time as a s.c. injection of 50 mg/kg of L-687,414. Mice were then transferred from their home cage to the recording chambers for a 15-min habituation phase allowing free exploration of the new environment. Horizontal activity was then recorded for a 30-min time period. The % inhibition of L-687,414-induced hyperlocomotion was calculated according to the equation:
((Veh+L-687,414 horizontal activity−drug+L-687,414 horizontal activity)/Veh+L-687,414 horizontal activity)×100
ID50 values, defined as doses of each compound producing 50% inhibition of L-687,414-induced hyperlocomotion, were calculated by linear regression analysis of a dose-response data using an Excel-based computer-fitting program.
As data was not presupposed to be normally distributed, groups treated with test compounds were statistically compared with the control (vehicle-treated) group using one-tailed Mann Whitney U tests. In statistics, the Mann-Whitney U test (also called the Mann-Whitney-Wilcoxon (MWW) or Wilcoxon rank-sum test) is a non-parametric statistical hypothesis test for assessing whether one of two samples of independent observations tends to have larger values than the other. It is one of the most well-known non-parametric significance tests. […] P values given in table 1 are one-tailed since only decreases in locomotion were expected and tested for (Mann, H. B., Whitney, D. R. (1947), “On a Test of Whether one of Two Random Variables is Stochastically Larger than the Other”, Annals of Mathematical Statistics, 18 (1), 50-60).

For “1-(2-cyclopropylpyrimidin-5-yl)-3,3-dimethyl-6-(2-methylpyrimidin-5-yl)indolin-2-one [Example 116]”, the IC50 (commonly the midpoint of a concentration-inhibition curve) in experiment [1] is 0.23 µM. In addition, the “L-687,414-induced hyperlocomotion Inhibition, ip [%]” value in experiment [2] was 92.8%. The matching figures for “3,3-dimethyl-1,6-bis(5-methylpyrazin-2-yl)indolin-2-one [Example 91]”: 1.82 µM and 73.7%.

The compound `Cc1ncc(-c2ccc3c(c2)N(c2ccncc2)C(=O)C3(C)C)cn1` [Example 1, 3,3-Dimethyl-6-(2-methylpyrimidin-5-yl)-1-(pyridin-4-yl)indolin-2-one] gave an IC50 in experiment [1] of 0.431 µM. Further, the inhibition in vivo – broadly, the share of the control response that was lost under treatment – at 30 mg/kg in experiment [2] is 95.4%. As to `Cc1ncc(-c2ccc3c(c2)N(c2cn(C)cn2)C(=O)C3(C)C)cn1` [Example 2, 3,3-Dimethyl-1-(1-methyl-1H-imidazol-4-yl)-6-(2-methylpyrimidin-5-yl)indolin-2-one], the IC50 in experiment [1] was found to be 0.613 µM. The same compound came in with an inhibition in vivo at 30 mg/kg in experiment [2] of 95.7%. For `Cc1ncc(-c2ccc3c(c2)N(c2ccn(C)n2)C(=O)C3(C)C)cn1` [Example 4, 3,3-Dimethyl-1-(1-methyl-1H-pyrazol-3-yl)-6-(2-methylpyrimidin-5-yl)indolin-2-one] the same measures were 0.951 µM and 93.4%. In experiment [2], `Cc1ncc(-c2cc3c(cn2)C(C)(C)C(=O)N3c2ccn(C)n2)cn1` [Example 16, 3,3-Dimethyl-1-(1-methyl-1H-pyrazol-3-yl)-6-(2-methylpyrimidin-5-yl)-1H-pyrrolo[3,2-c]pyridin-2(3H)-one] yielded an inhibition in vivo at 30 mg/kg of 78.3%.

In turn, `Cc1cc(N2C(=O)C(C)(C)c3ccc(-n4cnc(C)c4)cc32)ccn1` [Example 22, 3,3-Dimethyl-6-(4-methylimidazol-1-yl)-1-(2-methyl-4-pyridyl)indolin-2-one] returned an inhibition in vivo at 30 mg/kg in experiment [2] of 63.8%. On the same count and under the same terms, as for `Cc1ccc(N2C(=O)C(C)(C)c3ccc(-c4nnc(C)o4)cc32)cn1` [Example 34, 3,3-Dimethyl-6-(5-methyl-1,3,4-oxadiazol-2-yl)-1-(6-methyl-3-pyridyl)indolin-2-one], the figure is 59.7%.

For the compound `CC(C)c1cn(-c2ccc3c(c2)N(c2ccn(C)n2)C(=O)C3(C)C)cn1` [Example 37, 6-(4-Isopropylimidazol-1-yl)-3,3-dimethyl-1-(1-methylpyrazol-3-yl)indolin-2-one], 6.75 µM corresponded to half-maximal inhibition in experiment [1] (IC50). For the same compound, the inhibition in vivo at 30 mg/kg in experiment [2] was 73.8%. For `Cc1ncc(-c2ccc3c(c2)N(c2ccnc(F)c2)C(=O)C3(C)C)cn1` [Example 45, 1-(2-Fluoropyridin-4-yl)-3,3-dimethyl-6-(2-methylpyrimidin-5-yl)indolin-2-one] the same measures were 1 µM and 80.5%.

Regarding `Cc1ncc(-c2ccc3c(c2)N(c2ccn(C)n2)C(=O)C3(C)C)o1` [Example 49, 3,3-Dimethyl-6-(2-methyloxazol-5-yl)-1-(1-methylpyrazol-3-yl)indolin-2-one], in experiment [2], 30 mg/kg produced 47.1% inhibition in vivo. In experiment [1], `Cc1ncc(-c2ccc3c(c2)N(c2ccc(C)c(C)n2)C(=O)C3(C)C)cn1` [Example 70, 1-(5,6-dimethylpyridin-2-yl)-3,3-dimethyl-6-(2-methylpyrimidin-5-yl)indolin-2-one] registered an IC50 of 0.34 µM. The compound further displayed an inhibition in vivo at 30 mg/kg in experiment [2] of 93.5%. For `Cc1ncc(-c2ccc3c(c2)N(c2cnccn2)C(=O)C3(C)C)cn1` [Example 77, 3,3-dimethyl-6-(2-methylpyrimidin-5-yl)-1-(pyrazin-2-yl)indolin-2-one] the same measures were 2.41 µM and 92.6%.

In the case of `Cc1ncc(-c2ccc3c(c2)N(c2nc(C)n(C)n2)C(=O)C3(C)C)cn1` [Example 78, 1-(1,5-dimethyl-1H-1,2,4-triazol-3-yl)-3,3-dimethyl-6-(2-methylpyrimidin-5-yl)indolin-2-one], the inhibition in vivo at 30 mg/kg in experiment [2] was 89.9%. Still for that read-out and setting: the result for `Cc1ncc(-c2ccc3c(c2)N(c2ncn(C)n2)C(=O)C3(C)C)cn1` [Example 82, 3,3-dimethyl-1-(1-methyl-1H-1,2,4-triazol-3-yl)-6-(2-methylpyrimidin-5-yl)indolin-2-one] reads 89.6%; that for `Cc1ncc(-c2ccc3c(c2)N(c2ccncn2)C(=O)C3(C)C)cn1` [Example 93, 3,3-dimethyl-6-(2-methylpyrimidin-5-yl)-1-(pyrimidin-4-yl)indolin-2-one], 92.4%. As to `Cc1ncc(-c2ccc3c(c2)N(c2cnc(C4CC4)cn2)C(=O)C3(C)C)cn1` [Example 95, 1-(5-cyclopropylpyrazin-2-yl)-3,3-dimethyl-6-(2-methylpyrimidin-5-yl)indolin-2-one], the IC50 in experiment [1] turned out to be 0.047 µM. The compound further returned an inhibition in vivo at 30 mg/kg in experiment [2] of 76.9%. The matching figures for `Cc1ncc(-c2ccc3c(c2)N(c2cncc(C4CC4)n2)C(=O)C3(C)C)cn1` [Example 97, 1-(6-cyclopropylpyrazin-2-yl)-3,3-dimethyl-6-(2-methylpyrimidin-5-yl)indolin-2-one]: 0.102 µM and 78.5%.

On to `Cc1cc(-c2cc3c(cn2)C(C)(C)C(=O)N3c2ccc(C)nn2)ccn1` [Example 109, 3,3-dimethyl-1-(6-methylpyridazin-3-yl)-6-(2-methylpyridin-4-yl)-1H-pyrrolo[3,2-c]pyridin-2(3H)-one], for which, in experiment [2], the inhibition in vivo at 30 mg/kg was 51.3%.

The compound `Cc1cc(-c2cc3c(cn2)C(C)(C)C(=O)N3c2cnn(C)c2)ccn1` [Example 110, 3,3-dimethyl-1-(1-methyl-1H-pyrazol-4-yl)-6-(2-methylpyridin-4-yl)-1H-pyrrolo[3,2-c]pyridin-2(3H)-one] yielded an inhibition in vivo at 30 mg/kg in experiment [2] of 58.5%.

`Cc1cc(-c2cc3c(cn2)C(C)(C)C(=O)N3c2cn(C)cn2)ccn1` [Example 111, 3,3-dimethyl-1-(1-methyl-1H-imidazol-4-yl)-6-(2-methylpyridin-4-yl)-1H-pyrrolo[3,2-c]pyridin-2(3H)-one]: the inhibition in vivo at 30 mg/kg in experiment [2] amounted to 51%. The compound `Cc1ncc(-c2ccc3c(c2)N(c2ncc(Cl)cn2)C(=O)C3(C)C)cn1` [Example 113, 1-(5-chloropyrimidin-2-yl)-3,3-dimethyl-6-(2-methylpyrimidin-5-yl)indolin-2-one] gave an IC50 in experiment [1] of 0.203 µM. This compound also displayed an inhibition in vivo at 30 mg/kg in experiment [2] of 91.1%.

In experiment [1], `Cc1ncc(-c2ccc3c(c2)N(c2ccnnc2)C(=O)C3(C)C)cn1` [Example 120, 3,3-dimethyl-6-(2-methylpyrimidin-5-yl)-1-(pyridazin-4-yl)indolin-2-one] gave an IC50 of 3.6 µM. Moreover, the inhibition in vivo at 30 mg/kg in experiment [2] came out at 90.8%. For `Cc1cc(N2C(=O)C(C)(C)c3ccc(-c4cnc(C)nc4)cc32)sn1` [Example 124, 3,3-dimethyl-1-(3-methylisothiazol-5-yl)-6-(2-methylpyrimidin-5-yl)indolin-2-one] the same measures were 0.226 µM and 53.3%. For `Cc1ncc(-c2ccc3c(c2)N(c2ncc(C)s2)C(=O)C3(C)C)cn1` [Example 125, 3,3-dimethyl-6-(2-methylpyrimidin-5-yl)-1-(5-methylthiazol-2-yl)indolin-2-one] the same measures were 0.132 µM and 52%. For the compound `Cc1ncc(-c2ccc3c(c2)N(c2cnnc(Cl)c2)C(=O)C3(C)C)cn1` [Example 126, 1-(6-chloropyridazin-4-yl)-3,3-dimethyl-6-(2-methylpyrimidin-5-yl)indolin-2-one], it took 2.21 µM to reach half-maximal inhibition in experiment [1] (IC50). Besides, in experiment [2], 30 mg/kg produced 74.7% inhibition in vivo.
